Results published in US20090098529A1 (priority 2006, published 2009).
Read-outs that look alike come from different tables or passages of the source.

Key:
Details in all cases: mouse, in vivo
PANC-1 tumors [1] = system: PANC-1 tumors; set-up: species or system nude mice
PANC-1 tumors [2] = system: PANC-1 tumors; set-up: species or system nude mice; remark: listed apart in the source
A549 tumors = system: A549 tumors; set-up: species or system nude mice
GI-101A tumors = system: GI-101A tumors

N.N.[Cl][Pt][Cl] [Cisplatin, cis-diamminedichloroplatinum]
Effect on tumor growth (PANC-1 tumors [1]): unable to arrest tumor growth

Nc1ccn([C@@H]2O[C@H](CO)[C@@H](O)C2(F)F)c(=O)n1 [Gemcitabine]
Effect on tumor growth (PANC-1 tumors [2]): moderately decreased tumor growth | Effect on tumor growth (A549 tumors): actually increased tumor growth

Nc1ccn(C[C@@H](CO)OCP(=O)(O)O)c(=O)n1 [cidofovir]
Interference with tumor therapy by the virus (GI-101A tumors): did not significantly interfere with tumor therapy by the virus | Survival time of GLV-1h74 injected mice (GI-101A tumors): significantly extended the survival time
